Reference: patent US9139592B2, “Modulators of Nrf2 and uses thereof” (TRT PHARMA INC., priority 2010, dated 2015)
Entries after “also recorded” stand apart in the source; their conditions may differ.

Legend:
Assay type in all cases: cell-based
[1] = test system: Nrf2 nuclear translocation in HepG2 cells; test: Western blot of nuclear Nrf2 (Nrf2 nuclear translocation) in HepG2 cells; conditions: 24 h
Method: (§1) Cells are treated with test compounds at designated concentrations and are harvested at 24 h. Sixty microgram of cell-lysate protein and 35 ug of nuclear extract are loaded into each lane, and electrophoresed through a 4-20% gradient SDS-PAGE gel (Bio-Rad, Mississauga, ON, Canada), and transferred onto a nitrocellulose membrane. The membrane is incubated with primary antibody and subsequently incubated with HRP-conjugated secondary antibody. Finally, ECL detection is carried out, and the results were recorded on X-ray film by autophotography.
(§2) The 23 top-score molecules from the first round of virtual screening are initially tested in the cell-based ARE-driven luciferase assay. Specifically, HepG2 cell line are transfected with ARE-driven pGL3 luciferase vector and then exposed to individual test compounds at 10, 50 μM. Classical Nrf2 inducers EQ and SFN were used as the positive controls. […] To examine the effect of these active compounds on Nrf2 nuclear translocation, Western blot analysis is used to measure the nuclear level of Nrf2 after cells are exposed to these compounds.

[2] = test system: ARE-driven luciferase activity (Nrf2) in HepG2 cells; test: ARE-driven luciferase assay in HepG2 cells; conditions: test compounds at 10, 50 μM, 24 h
Method: (§3) One representative ARE (A2-ARE) from GSTA2 is used in this work, and A2-ARE are cloned into the KpnI and MluI sites of pGL3-promoter vector, which contains a heterologous SV40 promoter and a firefly luciferase reporter gene. Cells are seeded at 1×10^5 per well using 24-well plate, grown overnight before being transfected transfected with pGL3 and other designated constructs using LipofectAMINE (Invitrogen) for 5 h. The plasmid pRL, containing a renilla reniformis luciferase reporter gene, is cotransfected as internal control to correct transfection efficiency. After transfection, cells are treated with test compounds at designated concentrations for 24 h prior to harvesting. The cells are then washed twice with phosphate-buffered saline and harvested in 100 uL of 1× passive lysis buffer (Promega, Madison, Wis., USA). The luciferase activities are analyzed in 20-uL cell extracts with the Dual luciferase Assay™ kit (Promega) on a Lumat LB 9507 luminometer (Berthold Technologies, Oak Ridge, Tenn., USA). The related luciferase activities are expressed as a ratio of the pGL3 reporter activity to that of the control plasmid pRL. The fold of induction is expressed as ratio of induction from the treated cells versus the untreated. Values represent measurements from three independent experiments performed in triplicate and are presented as the mean±SEM.
as §2

[3] = test system: Keap1 mutants (C257S, C273S, C288S, C297S) / ARE-driven luciferase in 293T cells; test: ARE-driven luciferase assay in 293T cells co-transfected with Nrf2 and Keap1 IVR cysteine mutants; conditions: for effect of Keap1 C273S and C288S mutations on activation of ARE-driven luciferase activities / effect of Keap1 C297S mutant on potency in activating ARE-driven luciferase activities: 293T cells
Method: as §3
Keap1 is a multi-domain protein, in which the IVR domain contains 4 cysteine residues, C257, C273, C288 and C297. The known Nrf2 inducers may interact with these cysteine residues in the IVR domain, resulting in conformational change of Keap1 and ultimately activating Nrf2. To investigate the role of these active cysteine residues in the Nrf2-inducing activity of BM31, 4 Keap1 mutants (C257S, C273S, C288S and C297S) are tested. BM31 is selected for this and further investigation because the dose-response is consistent for its capability in inducing Nrf2 nuclear translocation and induction of enzyme GCS (FIG. 3). Co-transfection experiments to investigate the effects of Keap1 IVR cysteine mutants on ARE-driven luciferase activities are performed. Specifically, 293T cells are co-transfected with ARE-driven pGL3 luciferase report vector, Keap1 vector with and without the Nrf2 expression vector (FIG. 4). After transfection, the cells are exposed to BM31 at 50 μM for 16 h before harvest. The cell lysates are used for measurement of ARE-driven luciferase activities. […] Our conclusion is that BM31 targets the binding site around C297 in the IVR domain of Keap1, and mutation of residue C297 partially abolishes the Nrf2-inducing effect of BM31.

MCF-7 cells [4] = test: MCF-7 cell viability (MTT, 72 h); conditions: dose range 10 nM to 10 μM
Method: FIG. 9 illustrates MCF-7 cell survival curves for BM10, BM31, BM40 and SFN. MCF-7 cells were treated with test compounds at designated concentrations for 72 hours. Viable cells were evaluated by MTT assays. Experiments were performed in triplicate and repeated twice.
(§4) Cells are seeded at 4×10^3 per well using 96-well plate, grown overnight before being treated with test compounds for 72 h. Viable cells are measured by MTT assays. To evaluate the ability of test compounds in protecting MCF-7 cells from the damage of B[a]P, MCF-7 cells are seeded at 2×10^3 per well using 96-well plate, grown overnight before being treated with test compounds at designed concentration for 48 h. Next, cells are treated with 160 nM B[a]P in the presence of test compound for another 72 h. The viable cells are measured using MTT assays. Experiments are performed in triplicate and repeated twice.

MCF-7 cells [5] = test: Protection of MCF-7 cells from cytotoxic damage of B[a]P (MTT); conditions: low dose range 50 nM to 200 nM, 48 h pre-incubation, then 160 nM B[a]P + compound 72 h
Method: as §4
To test the capability of BM compounds in protecting against the cytotoxic effect of B[a]P, cellular assays using MCF-7 cells are performed. Incubation of MCF-7 cells with various concentrations of BM31 for 48 hours is followed by incubation with 160 nM B[a]P+the BM31 for 72 hours. MTT assays are performed to evaluate the protection effect of the BM31. DMSO without B[a]P was used as a control.

[6] = test system: γ-glutamylcysteine synthetase (GCS), a Nrf2-regulated protein, in HepG2 cells; test: Western blot of γ-glutamylcysteine synthetase (GCS) in HepG2 whole cell extracts; conditions: 24 h; for induction of GCS: whole cell protein extracts
Method: FIG. 3B illustrates endogenous γ-glutamylcysteine synthetase (GCS), a Nrf2-regulated protein, in whole cell protein extracts, detected by Western blotting. HepG2 cells were treated with EQ, SFN, DMSO, BM10, BM31 and BM40 at designated concentrations for 24 h.
as §1
Nrf2 is a master transcription factor regulating multiple ARE-regulated antioxidant and detoxifying enzymes, such as GCS, glutathione S-transferase (GST), NAD(P)H quinone oxidoreductase-1 (NQO1), and UDP glucuronosyltransferase (UGT), etc. The effects of our lead compounds on GCS are examined.

Nrf2/Keap1 complex = biological target: T1, Nrf2/Keap1 complex (Homo sapiens, UniProt Q14145); test: Co-IP of Keap1 and Nrf2 in co-transfected 293T cells; conditions: 293T cells co-transfected with Nrf2 and Keap1; 24 h; BM31 50 μM, SFN 5 μM
T1 construct: expressed in transfected cells; host or cells: 293T
Method: FIG. 5 illustrates 293T cell lysates immunoprecipitated with Keap1 antibody and the eluted proteins were immunoblotted with Nrf2 antibody. Lane 1: Nrf2 transfection; Lanes 2, 3, 4: Nrf2 and Keap1 co-transfection. Lanes 2, 3, 4: treated with DMSO, BM31 (50 μM) and SFN (5 μM), respectively.
To study the effect of BM31 on the interaction of Keap1 and Nrf2, Co-IP experiments are performed. 293T cells are successfully transfected and achieved high Nrf2 expression in this cell line. In the co-IP experiments, 293T cells are co-transfected with Nrf2 and Keap1 expression vectors. After transfection, the cells are treated with SFN and BM31 for 24 h before harvesting. The cell lysates are used for IP with Keap1 antibody. The eluted proteins are immunoblotted with Nrf2 antibody. […] For example, arsenic induces the Nrf2-dependent response through markedly enhancing the interaction between Keap1 and Cul3, subunits of the E3 ubiquitin ligase for Nrf2, which leads to impaired dynamic assembly/disassembly of the E3 ubiquitin ligase and thus decreases its ligase activity, resulting in inhibition of Nrf2 ubiquitination and degradation. Our further work will determine whether BM31 induces Nrf2 via a mechanism similar to that of arsenic.

T1 sequence (Q14145 whole entry): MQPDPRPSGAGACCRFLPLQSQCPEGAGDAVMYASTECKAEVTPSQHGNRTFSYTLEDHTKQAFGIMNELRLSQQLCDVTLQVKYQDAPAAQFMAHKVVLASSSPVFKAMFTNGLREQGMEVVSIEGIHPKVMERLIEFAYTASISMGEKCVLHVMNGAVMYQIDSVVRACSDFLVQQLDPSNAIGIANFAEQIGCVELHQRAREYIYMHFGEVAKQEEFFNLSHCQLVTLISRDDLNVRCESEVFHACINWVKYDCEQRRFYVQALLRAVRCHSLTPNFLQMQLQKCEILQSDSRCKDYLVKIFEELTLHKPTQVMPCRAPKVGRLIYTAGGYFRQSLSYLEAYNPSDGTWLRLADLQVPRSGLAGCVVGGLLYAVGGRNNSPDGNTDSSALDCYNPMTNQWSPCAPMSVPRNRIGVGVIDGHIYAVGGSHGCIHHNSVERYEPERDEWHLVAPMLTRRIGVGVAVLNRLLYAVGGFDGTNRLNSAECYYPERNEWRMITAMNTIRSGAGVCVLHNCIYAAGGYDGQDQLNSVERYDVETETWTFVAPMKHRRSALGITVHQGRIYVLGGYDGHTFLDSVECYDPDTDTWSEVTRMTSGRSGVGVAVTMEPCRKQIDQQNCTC
T1 sequence (Q16236 whole entry partner): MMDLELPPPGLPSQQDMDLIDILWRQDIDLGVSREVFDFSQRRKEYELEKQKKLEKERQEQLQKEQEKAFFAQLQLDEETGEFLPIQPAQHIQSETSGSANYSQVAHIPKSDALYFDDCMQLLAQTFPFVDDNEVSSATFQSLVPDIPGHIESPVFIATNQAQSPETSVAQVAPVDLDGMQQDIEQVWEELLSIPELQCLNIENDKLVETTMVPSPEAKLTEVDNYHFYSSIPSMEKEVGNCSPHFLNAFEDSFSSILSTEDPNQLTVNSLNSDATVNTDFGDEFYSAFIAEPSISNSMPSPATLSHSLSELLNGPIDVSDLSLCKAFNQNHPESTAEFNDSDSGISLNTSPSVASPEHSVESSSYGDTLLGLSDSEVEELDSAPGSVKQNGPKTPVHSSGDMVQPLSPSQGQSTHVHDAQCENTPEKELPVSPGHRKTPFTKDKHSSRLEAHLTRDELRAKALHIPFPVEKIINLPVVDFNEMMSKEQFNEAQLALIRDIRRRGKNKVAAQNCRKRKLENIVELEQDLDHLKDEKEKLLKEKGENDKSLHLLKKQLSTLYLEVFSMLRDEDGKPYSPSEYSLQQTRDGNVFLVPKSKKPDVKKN

Structure (SMILES)	induction of Nrf2 nuclear translocation (nuclear Nrf2 by Western blot) [1]	induction of ARE-driven luciferase activities [2]	cytotoxic effects on proliferation of MCF-7 cells (MCF-7 cells [4])	induction of GCS [6]	potency in elevating nuclear Nrf2 compared with SFN [1]	other results
Nc1nc(N)c2ncn(Cc3ccccc3)c2n1 [BM6]	modest activity; also recorded: triggered Nrf2 nuclear translocation	potently induce				
Cc1n[nH]c2c(Cc3ccco3)nnc(O)c12 [BM18]	modest activity; also recorded: triggered Nrf2 nuclear translocation	potently induce				
Cc1nnc(Cc2ccco2)c2[nH]nc(C)c12 [BM19]	triggered Nrf2 nuclear translocation					
Clc1ncnc2c1ncn2[C@H]1CCCS1 [BM31]	potent Nrf2 inducers; also recorded: triggered Nrf2 nuclear translocation		do not have cytotoxic effects	induced expression	comparable to that of SFN	effect of Keap1 C273S and C288S mutations on activation of ARE-driven luciferase activities [3]: do not completely abolish; effect of Keap1 C297S mutant on potency in activating ARE-driven luciferase activities [3]: limits the potency; also recorded: abolished the Nrf2 induction activity; induction of ARE-driven luciferase activities with C257S, C273S or C288S mutant Keap1 ([3]; 293T cells co-transfected with ARE-pGL3, Nrf2 and mutant Keap1, BM31 50 μM, 16 h): potently induces; protection of MCF-7 cells from cytotoxic damage of B[a]P (MCF-7 cells [5]): significant protection; also recorded: provides protections; potency in inducing GCS compared with SFN and EQ [6]: comparable to that of SFN and EQ; effect on Nrf2/Keap1 complex (Keap1 IP, Nrf2 immunoblot) (Nrf2/Keap1 complex): increases the Nrf2/Keap1 complex
Nc1nc(S)c2ncn(C3CCCCC3)c2n1 [BM9]	modest activity; also recorded: triggered Nrf2 nuclear translocation					
Ic1ncnc2c1ncn2[C@H]1CCCS1 [BM10]	most potent; also recorded: triggered Nrf2 nuclear translocation		do not have cytotoxic effects	modest potency; also recorded: induced expression	comparable to that of SFN	
COc1ccc2nc3cc(Cl)ccc3c(C#N)c2c1 [BM4]	modest activity; also recorded: triggered Nrf2 nuclear translocation	potently induce				
O=C(c1ccccc1)C1COc2ccccc2C1O (stereo not shown) [BM40]	potent Nrf2 inducers; also recorded: triggered Nrf2 nuclear translocation		do not have cytotoxic effects	induced expression	comparable to that of SFN	potency in inducing GCS compared with SFN and EQ [6]: comparable to that of SFN and EQ
O=C1C[C@@H](c2ccccc2)Oc2cc(O)cc(O)c21 [BM5]	triggered Nrf2 nuclear translocation					
C[S+]([O-])CCCCN=C=S (stereo not shown) [SFN, sulforaphane, reference compound]						effect of Keap1 C273S and C288S mutations on activation of ARE-driven luciferase activities [3]: do not completely abolish; effect of Keap1 C297S mutant on potency in activating ARE-driven luciferase activities [3]: did not affect the potency; effect on Nrf2/Keap1 complex (Keap1 IP, Nrf2 immunoblot) (Nrf2/Keap1 complex): increases the Nrf2/Keap1 complex
